Experimental data: article PMC11417994, “Cyclohexanediamine Triazole (CHDT) Functionalization Enables Labeling of Target Molecules with Al^18F/^68Ga/^111In” (Bioconjugate Chemistry, 2024)
pKd: −log10 of the molar value.

Target: T1, PSMA (Homo sapiens, UniProt Q04609)
T1 construct: Detection of endogenous PSMA expression in LNCaP and PC3 cells relative to β-actin expression by Western; host or cells: LNCaP human prostate carcinoma cells (monolayer, spheroids or Potter-Elvehjem homogenates)
Assay: Saturation binding using LNCaP cell homogenates
Protocol: The binding affinity of the nonlabeled CHDT-PSMA-1/2/3, PSMA-1007, PSMA-617, and KuE was assessed in competition binding assays using LNCaP cell homogenates (∼1 × 10^6 cells/mL using Potter-Elvehjem) and the radioligand [^177Lu]Lu-PSMA-617 (n = 5 for CHDT-PSMA-1; n = 4 for CHDT-PSMA-2/3; n = 2 for PSMA-1007; n = 8 for PSMA-617; n = 6 for KuE). […] The assays were performed in a final volume of 200 μL. The incubation was stopped by washing the homogenate with cold PBS four times using a filter (Whatman GF/C, 90 min presoaked in 0.3% polyethylenimine) in a cell harvester (Brandel, USA). The radioactivity bound to the filter was measured in a gamma counter. Filter binding was determined for adjacent samples without cell homogenate. […] The Kd value of [^177Lu]Lu-PSMA-617 was determined in saturation binding assays using LNCaP cell homogenates to be 15.2 (±2.1) nM. […]
Dissociations constants (Kd and Kd,int), as well as maximal binding capacities (Bmax and Bmax,int), were derived from specific binding data by nonlinear regression according to the model of “One site-specific binding” as implemented in GraphPad Prism 10. Protein content was determined using the bicinchoninic acid protein assay kit (Pierce, Thermo Scientific) to calculate the binding capacities in pmol/mg and for the time-depending internalization the internalized percent of administrated dose per μg protein (% AD/μg protein).

T1 sequence (Q04609 whole entry): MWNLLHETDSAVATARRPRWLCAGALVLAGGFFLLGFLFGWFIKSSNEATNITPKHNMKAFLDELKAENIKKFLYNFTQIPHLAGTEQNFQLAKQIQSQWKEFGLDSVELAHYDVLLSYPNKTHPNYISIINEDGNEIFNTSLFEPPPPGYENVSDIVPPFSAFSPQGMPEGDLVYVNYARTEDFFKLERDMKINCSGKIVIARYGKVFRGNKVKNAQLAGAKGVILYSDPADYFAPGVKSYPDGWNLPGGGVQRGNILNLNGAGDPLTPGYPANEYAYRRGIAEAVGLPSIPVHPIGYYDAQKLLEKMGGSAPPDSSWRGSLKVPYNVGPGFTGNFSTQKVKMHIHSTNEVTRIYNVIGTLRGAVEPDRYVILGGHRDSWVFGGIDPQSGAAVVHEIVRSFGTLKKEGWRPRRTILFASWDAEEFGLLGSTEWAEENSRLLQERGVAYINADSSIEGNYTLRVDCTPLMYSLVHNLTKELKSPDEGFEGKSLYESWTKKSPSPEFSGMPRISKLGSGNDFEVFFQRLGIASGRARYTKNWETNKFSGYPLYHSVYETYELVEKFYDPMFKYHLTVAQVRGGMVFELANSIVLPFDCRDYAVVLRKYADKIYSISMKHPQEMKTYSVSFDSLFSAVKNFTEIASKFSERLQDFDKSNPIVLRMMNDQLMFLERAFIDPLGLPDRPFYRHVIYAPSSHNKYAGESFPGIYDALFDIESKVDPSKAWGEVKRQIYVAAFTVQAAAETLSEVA

pKd: 7.82
Substance: [^177Lu]Lu-PSMA-617
